Common to all, as to format: in vivo
One data set relates to Stellaria media. Put plainly: Test Example 2: spray on plants from above ten days after sowing, herbicidal activity. The settings on record: sprayed on plants ten days after sowing, 21 days after treatment, scale 0-10.
The next data set deals with Sinapis arvensis. Described as above. The settings on record: sprayed on plants ten days after sowing, 21 days after treatment, scale 0-10.
The next data set deals with Chenopodim album. The data set is described as above. As to conditions: sprayed on plants ten days after sowing, 21 days after treatment, scale 0-10.
In the next data set the test system is Cyperus esculentus. Description: Test Example 4: soil spray on day of planting tubers, herbicidal activity. As to conditions: 14 days after treatment, scale 0-10.
The subject of data set [1] is wheat (species: Norin No. 61). Put plainly: Test Example 2: spray on plants from above ten days after sowing, phytotoxicity to crop. As to conditions: 800 g/ha, sprayed on plants ten days after sowing, 21 days after treatment.
Experimental: (§1) The phytotoxicity to a crop is evaluated by indicating “harmless” in case that no or little phytotoxicity is recognized, “light” in case that light phytotoxicity is recognized, “medium” in case that medium phytotoxicity is recognized, or “severe” in case that severe phytotoxicity is recognized.
(§2) Field soil was filled in a plastic pot of 32 cm wide, 22 cm long and 8 cm high, and seeds of wheat (species: Norin No. 61), Sinapis arvensis, and Stellaria media were sowed thereon.
(§3) The plants were raised in a greenhouse and herbicidal activity and phytotoxicity were determined 21 days after the chemical treatment.

Text for Cyperus esculentus: Field soil was filled in a plastic pot of 32 cm wide, 22 cm long and 8 cm high, and tubers of Cyperus esculentus were planted.
On the day of planting, each of an imazosulfuron suspension formulation (a 40% imazosulfuron-containing suspension formulation, trade name: Sibatite 40 manufactured by Sumitomo Chemical Co., Ltd.), a pendimethalin emulsifiable concentrate (a 30% pendimethalin-containing emulsifiable concentrate, trade name: Go-go-san 30 manufactured by BASF) and a mixed formulation prepared by mixing the imazosulfuron suspension formulation and the pendimethalin emulsifiable concentrate was diluted with water and uniformly sprayed on the soil with a small sprayer so that their amounts became those as shown in Table 4.
The plants were raised in a greenhouse and herbicidal activity was determined 14 days after the chemical treatment.
Experimental for Sinapis arvensis: as §1, §2, §3
Experimental for Stellaria media: as §1, §2, §3

For `COc1cc(OC)nc(NC(=O)NS(=O)(=O)c2c(Cl)nc3ccccn23)n1` [Imazosulfuron, 1-(2-chloroimidazo[1,2-a]pyridin-3-ylsulfonyl)-3-(4,6-dimethoxypyrimidin-2-yl)urea], the “Herbicidal activity Sm” value in the data set with Stellaria media (100 g/ha) is listed as 10. Further, in the data set on Sinapis arvensis (100 g/ha), the “Herbicidal activity Sa” value was 10. In addition, the “Herbicidal activity Ca” value in the data set on Chenopodim album (100 g/ha) came out at 3. The Herbicidal activity in the data set on Cyperus esculentus (25 g/ha) is on record as 4.
Regarding `CCC(CC)Nc1c([N+](=O)[O-])cc(C)c(C)c1[N+](=O)[O-]` [Pendimethalin, N-(1-ethylpropyl)-3,4-dimethyl-2,6-dinitrobenzenamine], in the data set on Stellaria media (800 g/ha), the “Herbicidal activity Sm” value came out at 9. Besides, the “Phytotoxicity Wheat” value in data set [1] was “harmless”. The “Herbicidal activity Sa” value in the data set on Sinapis arvensis (800 g/ha) amounted to 2. Moreover, in the data set with Chenopodim album (800 g/ha), the “Herbicidal activity Ca” value was determined as 5. Further, the Herbicidal activity in the data set on Cyperus esculentus (50 g/ha) and in the data set on Cyperus esculentus (200 g/ha) was 0 in each case.
